Assay results reported in the supplement of paper PMC5844555.

Columns and labels:
Experiment in all cases: 3' UTR reporter interaction score (median-centred robust z-score of log2 firefly/Renilla activity); higher = less repression of the 3' UTR reporter
Settings in all cases: HEK293T; 48 h
BRCA2 = system: BRCA2
Procedure, shortened: (§1)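 HEK293T cells (10,000/well, 96-well plates) were co-transfected using DharmaFECT Duo with 100 ng firefly luc2P reporter carrying the gene's 3' UTR, 20 ng Renilla pRL-TK control and 2.5 pmol miRNA mimic. Dual-luciferase activities were read 48 h post-transfection. The interaction score is the log-transformed firefly/Renilla ratio as a per-plate robust z-score (median, median absolute deviation), median-centred per miRNA and averaged over at least two independent screens; more negative indicates interaction.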

EZH2 = system: EZH2
Procedure, shortened: as §1

FBXW7 = system: FBXW7
Procedure, shortened: as §1

HRAS = system: HRAS
Procedure, shortened: as §1

MYB = system: MYB
Procedure, shortened: as §1

MYCN = system: MYCN
Procedure, shortened: as §1

MYC = system: MYC
Procedure, shortened: as §1

MYT1L = system: MYT1L
Procedure, shortened: as §1

NOTCH1 = system: NOTCH1
Procedure, shortened: as §1

PHF6 = system: PHF6
Procedure, shortened: as §1

PHOX2B = system: PHOX2B
Procedure, shortened: as §1

RB1 = system: RB1
Procedure, shortened: as §1

TP53 = system: TP53
Procedure, shortened: as §1

ZEB2 = system: ZEB2
Procedure, shortened: as §1

Sequence | 3' UTR reporter interaction score (BRCA2) | 3' UTR reporter interaction score (EZH2) | 3' UTR reporter interaction score (FBXW7) | 3' UTR reporter interaction score (HRAS) | 3' UTR reporter interaction score (MYB) | 3' UTR reporter interaction score (MYCN) | 3' UTR reporter interaction score (MYC) | 3' UTR reporter interaction score (MYT1L) | 3' UTR reporter interaction score (NOTCH1) | 3' UTR reporter interaction score (PHF6) | 3' UTR reporter interaction score (PHOX2B) | 3' UTR reporter interaction score (RB1) | 3' UTR reporter interaction score (TP53) | 3' UTR reporter interaction score (ZEB2)
ACUUCACCUGGUCCACUAGCCGU | -0.412 | -0.456 | -2.1 | -0.736 | 0.743 | 0.0552 | -0.039 | 1.42 | 0.897 | 0.576 | -0.0718 | 1.16 | -0.237 | 0.694
ACUUGGGCACUGAAACAAUGUCC | -0.973 | -1.19 | -0.0493 | -0.00106 | -0.103 | 0.382 | 0.112 | 0.0827 | -4.15 | 1.39 | 0.564 | 0.0718 | -1.34 | 1.78
ACUUGUAUGCUAGCUCAGGUAG | 0.171 | 0.301 | 0.132 | 0.169 | -0.993 | -0.194 | 0.231 | 0.252 | -2.55 | 0.16 | 0.171 | 0.468 | -0.611 | 0.0953
AGACCAUGGGUUCUCAUUGU | -2.41 | 0.304 | -0.214 | -0.0387 | -0.2 | 0.149 | 0.53 | 0.673 | -0.0186 | 1.61 | -1.43 | -1.2 | -0.82 | -1.1
AGACCCUGGUCUGCACUCUAU | 0.647 | 2.76 | 1.02 | 1.38 | 0.748 | 1.92 | 2.47 | -1.4 | -0.49 | -3.41 | -0.928 | -2.99 | -5.07 | -0.0019
AGACCUGGCCCAGACCUCAGC | -0.79 | 0.316 | 0.099 | -0.381 | 0.0206 | 0.863 | 0.0891 | -3.18 | -0.568 | -0.218 | -0.381 | -2.21 | 0.562 | -0.702
AGACUUCCCAUUUGAAGGUGGC | -0.566 | 0.311 | 0.497 | -0.109 | 0.287 | -2.21 | -0.381 | 0.482 | -0.842 | 1.01 | 0.285 | 0.0148 | -0.0594 | 0.705
AGAGGCUGGCCGUGAUGAAUUC | -0.104 | 0.351 | -0.536 | -0.467 | 0.549 | 0.202 | -1.78 | -1.95 | 0.488 | 2.37 | 1.42 | -0.425 | -1.7 | 0.958
AGAGGUAGUAGGUUGCAUAGU | 0.509 | -3.25 | -0.0422 | 1 | 0.728 | -3.2 | -2.12 | -0.701 | -0.39 | 0.956 | -0.956 | -0.186 | 0.943 | -0.685
AGAGGUAUAGGGCAUGGGAAAA | 0.942 | -0.166 | -0.74 | -0.616 | 0.665 | -2.96 | 0.244 | 0.692 | 0.463 | 0.541 | -0.404 | -0.615 | -0.403 | 1.12
AGAUCGACCGUGUUAUAUUCGC | 0.451 | 0.0389 | -0.751 | 0.57 | -1.19 | 0.592 | 0.022 | -1.38 | 0.965 | 0.689 | -0.0818 | 0.976 | -2.1 | -1.03
AGCAGCAUUGUACAGGGCUAUCA | 1.96 | -1 | -2.69 | 0.106 | -2.18 | 0.215 | 0.869 | -2.1 | -0.476 | 1.3 | -0.507 | 1.3 | -0.509 | 1.43
AGCAGCAUUGUACAGGGCUAUGA | 0.461 | -0.463 | -0.997 | -0.255 | -1.03 | 0.0597 | 1.13 | -1.07 | -0.182 | 2.88 | 1.07 | -1.15 | 0.727 | 0.465
AGCUACAUCUGGCUACUGGGUCUC | -0.144 | -0.0907 | 0.465 | 1.2 | -3.44 | 1.39 | 0.941 | -0.398 | 0.41 | -0.555 | 0.255 | -3.28 | 0.614 | -1.04
AGCUACAUUGUCUGCUGGGUUUC | -0.328 | 0.0119 | 1.22 | 0.0503 | -4.52 | 0.451 | 0.427 | -0.38 | 0.703 | -0.314 | 0.602 | -3.13 | 0.277 | -0.124
AGCUCGGUCUGAGGCCCCUCAG | 1.86 | -0.671 | 0.253 | 0.284 | 0.304 | -0.643 | -0.504 | 3.65 | 1.23 | 0.229 | -1.22 | 3.69 | 0.0655 | 2.05
AGCUGGUGUUGUGAAUC | -0.493 | -0.157 | -0.398 | -0.334 | 0.129 | 0.275 | 0.179 | 0.16 | 0.152 | -0.508 | 0.54 | -0.243 | 0.136 | 0.43
AGCUGUCUGAAAAUGUCUU | -0.293 | -0.132 | 0.675 | -0.208 | -0.536 | -0.701 | 0.303 | 0.171 | -0.774 | -0.786 | 1.04 | 0.19 | 0.132 | -0.552
AGGAAGCCCUGGAGGGGCUGGAGGU | -1.21 | -0.359 | -0.101 | 0.456 | 0.39 | 1.43 | -0.314 | 1.24 | -1.34 | -0.529 | 1.18 | -0.165 | 0.127 | -0.152
